Patent US20220204575A1, “MODULATING SURVIVAL OF THERAPEUTIC CELLS AND METHODS, CELLS AND NUCLEIC ACIDS RELATED THERETO” (The Regents of the University of California, priority 2019, published 2022)

Experiments:
Assay type in all cases: cell-based
[1] = test system: human primary CD4 T cells; assay: Anti-Her2 synNotch driving pro-apoptotic BCL-2 family protein X, T cell survival with antigen-expressing target cells; conditions: in the presence of antigen-expressing target cells
Protocol: For example, a circuit was designed, as schematically depicted in FIG. 27, with an anti-Her2 synNotch driving expression of a pro-apoptotic BCL-2 family protein “X”, where X stands for the various pro-apoptotic BCL-2 family members were tested in the depicted circuit. As shown, upon the anti-Her2 scFv portion of the synNotch receptor binding Her2 expressed by a target cell, the transcription factor (TF) portion of the synNotch, containing Gal4-VP64, is released and inducing expression of the pro-apoptotic BCL-2 family protein “X”. The level of induced apoptosis in the presence of cells expressing the target antigen, as compared to control cells not expressing the target antigen, was then assessed.
Results of testing BID, tBID, PUMA, BMF, HRK and BIK as pro-apoptotic BCL-2 family protein “X” in this system are shown in FIG. 28, along with a negative control employing BFP in place of the pro-apoptotic BCL-2 family protein “X”.
Thus, the therapeutic cells encoding the BID circuit were able to survive BID induction.

[2] = test system: primary human T cells; assay: Constitutive overexpression of pro-apoptotic BCL-2 family proteins in T cells, FACS at culture day 12
Protocol: The abilities of several pro-apoptotic proteins (e.g., BIM, truncated Bid (tBID), and BAD) to induce T cell apoptosis when synthetically overexpressed from a constitutive promoter were tested. The tested T cells were also engineered to constitutively overexpress anti-apoptotic BCL-2.
Without being bound by theory, these effects were likely due to leaky expression of BIM, the high effectiveness of BIM in inducing apoptosis, or a combination thereof.

[3] = test system: engineered T cells; assay: Inducible tBID circuit with varied levels of constitutive BCL-2 expression, T cell survival; conditions: constant antigen-induced tBID expression, varied constitutive BCL-2
Text: The ability of anti-apoptotic BCL-2 to buffer a pro-apoptotic protein was further tested in an inducible tBID circuit (described in more detail below) with varied levels of constitutive BCL-2 expression (schematically depicted in FIG. 5). In this experiment, constant levels of tBID expression were induced by the presence of antigen expressing target cells, BCL-2 expression levels were varied, and the amount of T cell survival at different levels of BCL-2 expression was quantitated (FIG. 6).

[4] = test system: T cells; assay: Basal T cell death from inducible response element constructs in the absence of synNotch antigen
Text: Differences in the potency of various BCL-2 family members in inducible systems for therapeutic cell population control were also investigated and differences in potency were observed. For example, molecular circuits were designed and tested that included a response element construct including a UAS, inducible by the released transcription factor (TF) domain of a synNotch receptor, driving expression of various different BCL-2 family members (e.g., BIM, tBID, etc.) and a constitutive reporter (mCherry) (see schematic depiction provided in FIG. 19). Upon binding its target antigen, the synNotch receptor releases the TF domain which activates the UAS thereby driving expression of the respective BCL-2 family protein and the mCherry reporter is used to observe the size of the cell population thereafter.

“HRK: pro-apoptotic HRK protein, human UniProt O00198, SEQ ID NO: 103” was tested, and the “induced apoptosis of T cells” value [1] was “induce apoptosis of human primary CD4 T cells”.

“BMF: pro-apoptotic BMF protein, human UniProt Q96LC9” was tested, and the “induced apoptosis of T cells” value [1] was “induce apoptosis of human primary CD4 T cells”.

“BCL-2: anti-apoptotic BCL-2 protein, human UniProt P10415, SEQ ID NO: 105” was tested, and the “buffering against apoptotic effects of tBID and BIM” value ([2]; constitutive co-expression of BCL-2) was “at least partially buffer against the apoptotic effects”, the “T cell survival at different levels of BCL-2 expression” value [3] was “titratably buffers against apoptosis” and the “T cell survival at different levels of BCL-2 expression” value ([3]; listed as BCL2) was “less tBID-induced apoptosis”.

“BIM: pro-apoptotic BCL-2 family protein, human BIM UniProt O43521, SEQ ID NO: 99” was tested, and the “ability to induce T cell apoptosis / drive T cell death” value ([2]; constitutive expression, with constitutive overexpression of BCL-2, culture day 12) was “drove significant apoptosis”, the “basal T cell death from leaky expression” value ([4]; absence of synNotch target antigen, mCherry reporter) was “sufficient to cause widespread T cell death” and the “cell death from uninduced inducible construct” value ([4]; uninduced, in the absence of co-expression with anti-apoptotic BCL-2) was “leads to significant levels of cell death”.
